Several values for one entry are separate records, joined by “and”; a condition that tells them apart may be missing. Equal entries are not always repeated.
Tested on: NAD and NADP in whole blood
Settings: hypercholesterolemia subjects, 750 mg of niacin twice daily for two months
Source text: The term niacin number has been chosen as a convenient way to represent niacin status and is defined as the ratio of the concentration of NAD to the concentration of NADP multiplied by 100 (100·[NAD]/[NADP]) in whole blood. For example, if the relative concentration of NADP([NADP]) is 1 and the relative concentration of NAD([NAD]) is 0.72, the niacin number would be 72 (from the formula 100·[NAD]/[NADP]=72 wherein [NAD] is 0.72 and [NADP] is 1). Expressing the values in this way yields a whole number that is linearly related to intracellular NAD content of red blood cells.

With `O=C(O)c1cccnc1` [niacin, pyridine 3-carboxylic acid] the Mean niacin number (pretherapy mean 175) was 665 and 665 ± 115 and the “Range observed (niacin number)” value (pretherapy range 131-242) was 517-746.
